Structures can show the parent of a compound that is named as a salt.
How the values were obtained:
[1] = biological target: T1, ErbB2 (Homo sapiens, UniProt P04626); experiment: ErbB-2 substrate phosphorylation assay (HTRF); format: biochemical; details: Method (A): Enzyme Mix incubated with compound at 20° C. for 1 hr, reaction started by adding Substrate Mix
T1 construct: made in house; host or cells: baculovirus expression system
In short: (§1)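 Baculovirus-expressed kinase (0.8 nM EGFR or 10 nM ErbB2 in enzyme mix) with Peptide C 0.8 μM and ATP 20 μM (substrate-mix levels), MOPS pH 7.5, MnCl2; 90 min, 20 °C, HTRF anti-phosphotyrosine. Method A adds 1 h enzyme–compound preincubation; B none. pIC50, final compound 0.00027–47.6 μM.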

[2] = tested on: HN5 tumor cells; experiment: Method B: CellTiter-Glo Growth Inhibition Assay, HN5; format: cell-based; details: Homo sapiens, 72 h, 3 days
Procedure: (§2) Human breast tumor cells (BT474) were cultured in RPMI, (Invitrogen, 22400) containing 10% fetal bovine serum (FBS). Human head and neck tumor cells (HN5) were cultured in low glucose DMEM (Invitrogen, 12320) containing 10% FBS. Human colon tumor cells (Colo205) were cultured in DMEM (Invitrogen, 10564) containing 10% FBS. Human melanoma cancer cells (SK-MEL-28) were incubated in DMEM (Invitrogen). All cell lines were maintained at 37° C. in a humidified 5% CO2, 95% air incubator. Cells were harvested using trypsin/EDTA, counted using a haemocytometer, and plated in 30 μL of the appropriate media described above, at the following densities, in a half-area, black-walled, 96-well tissue culture plate (Corning 3882): BT474 3,000 cells/well, HN5 500 cells/well, Colo205 3,000 cells/well, and SK-MEL-28 500 cells/well). The next day, compounds were diluted in DMEM containing […] gentamicin, from 10 mM stock solutions in DMSO. 30 μL/well of these dilutions were added to the 30 μL/well of media currently on the cell plates. Medium containing 0.6% DMSO was added to control wells. The final concentration of DMSO in all wells was 0.3%. Cells were incubated at 37° C., 5% CO2 for 3 days. Cell biomass was estimated using CellTiter-Glo® reagent (Promega G7571). Briefly, plates were removed from the incubator and allowed to equilibrate to rt for 30 minutes. 25-60 μL of CellTiter-Glo® reagent were added to each well of the treated cells and plates were shaken on an orbital plate shaker for 2 mins. Plates were incubated without shaking for 30 more mins and read in a luminometer with an integration time of 0.5 seconds per well. Percent inhibition of cell growth was calculated relative to vehicle-treated control wells. Concentration of compound that inhibits 50% of vehicle control cell growth (IC50) was interpolated using nonlinear regression (Levenberg-Marquardt) and the equation, y=V max*(1−(x/(K+x)))+Y2, where “K” was equal to the IC50.

[3] = tested on: Colo205 tumor cells; experiment: Method B: CellTiter-Glo Growth Inhibition Assay, Colo205; format: cell-based; details: Homo sapiens, COLO 205, 72 h, 3 days
Procedure: as §2

[4] = biological target: T2, EGFR (Homo sapiens, UniProt P00533); experiment: EGFR substrate phosphorylation assay (HTRF); format: biochemical; details: Method (A): Enzyme Mix incubated with compound at 20° C. for 1 hr, reaction started by adding Substrate Mix
T2 construct: made in house; host or cells: baculovirus expression system
In short: as §1

[5] = tested on: BT474 tumor cells; experiment: Method B: CellTiter-Glo Growth Inhibition Assay, BT474; format: cell-based; details: Homo sapiens, BT-474, 72 h, 3 days
Procedure: as §2

T2 sequence (P00533 25-1210): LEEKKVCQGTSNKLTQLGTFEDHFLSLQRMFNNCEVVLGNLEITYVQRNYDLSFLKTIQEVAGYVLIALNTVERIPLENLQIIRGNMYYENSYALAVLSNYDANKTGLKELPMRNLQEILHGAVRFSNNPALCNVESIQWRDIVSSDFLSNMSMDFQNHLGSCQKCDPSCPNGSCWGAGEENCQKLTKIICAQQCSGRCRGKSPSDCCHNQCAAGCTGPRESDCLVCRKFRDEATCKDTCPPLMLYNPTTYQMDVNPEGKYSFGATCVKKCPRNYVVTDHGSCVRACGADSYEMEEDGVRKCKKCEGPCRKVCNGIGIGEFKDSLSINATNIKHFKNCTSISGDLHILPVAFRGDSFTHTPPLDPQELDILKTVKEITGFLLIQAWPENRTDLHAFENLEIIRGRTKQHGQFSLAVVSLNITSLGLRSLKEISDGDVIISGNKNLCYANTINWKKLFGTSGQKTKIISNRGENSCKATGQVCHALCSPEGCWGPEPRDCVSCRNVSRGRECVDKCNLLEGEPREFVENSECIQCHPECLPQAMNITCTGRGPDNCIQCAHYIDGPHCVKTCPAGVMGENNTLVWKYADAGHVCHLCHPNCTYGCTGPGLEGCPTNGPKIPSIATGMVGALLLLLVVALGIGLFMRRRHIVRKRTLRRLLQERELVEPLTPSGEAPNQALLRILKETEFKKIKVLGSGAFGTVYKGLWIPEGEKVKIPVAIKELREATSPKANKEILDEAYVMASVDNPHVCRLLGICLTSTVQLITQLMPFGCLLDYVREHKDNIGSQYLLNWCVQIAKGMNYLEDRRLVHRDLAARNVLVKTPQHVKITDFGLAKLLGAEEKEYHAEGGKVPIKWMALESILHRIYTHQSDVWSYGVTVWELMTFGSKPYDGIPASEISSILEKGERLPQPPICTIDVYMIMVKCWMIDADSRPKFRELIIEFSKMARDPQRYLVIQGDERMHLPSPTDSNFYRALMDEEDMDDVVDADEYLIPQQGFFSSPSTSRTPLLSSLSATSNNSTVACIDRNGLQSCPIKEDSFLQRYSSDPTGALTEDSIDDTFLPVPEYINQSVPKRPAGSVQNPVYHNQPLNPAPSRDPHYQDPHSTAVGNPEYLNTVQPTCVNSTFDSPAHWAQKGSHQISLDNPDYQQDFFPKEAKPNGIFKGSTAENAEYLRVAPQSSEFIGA
T1 sequence (P04626 23-1255): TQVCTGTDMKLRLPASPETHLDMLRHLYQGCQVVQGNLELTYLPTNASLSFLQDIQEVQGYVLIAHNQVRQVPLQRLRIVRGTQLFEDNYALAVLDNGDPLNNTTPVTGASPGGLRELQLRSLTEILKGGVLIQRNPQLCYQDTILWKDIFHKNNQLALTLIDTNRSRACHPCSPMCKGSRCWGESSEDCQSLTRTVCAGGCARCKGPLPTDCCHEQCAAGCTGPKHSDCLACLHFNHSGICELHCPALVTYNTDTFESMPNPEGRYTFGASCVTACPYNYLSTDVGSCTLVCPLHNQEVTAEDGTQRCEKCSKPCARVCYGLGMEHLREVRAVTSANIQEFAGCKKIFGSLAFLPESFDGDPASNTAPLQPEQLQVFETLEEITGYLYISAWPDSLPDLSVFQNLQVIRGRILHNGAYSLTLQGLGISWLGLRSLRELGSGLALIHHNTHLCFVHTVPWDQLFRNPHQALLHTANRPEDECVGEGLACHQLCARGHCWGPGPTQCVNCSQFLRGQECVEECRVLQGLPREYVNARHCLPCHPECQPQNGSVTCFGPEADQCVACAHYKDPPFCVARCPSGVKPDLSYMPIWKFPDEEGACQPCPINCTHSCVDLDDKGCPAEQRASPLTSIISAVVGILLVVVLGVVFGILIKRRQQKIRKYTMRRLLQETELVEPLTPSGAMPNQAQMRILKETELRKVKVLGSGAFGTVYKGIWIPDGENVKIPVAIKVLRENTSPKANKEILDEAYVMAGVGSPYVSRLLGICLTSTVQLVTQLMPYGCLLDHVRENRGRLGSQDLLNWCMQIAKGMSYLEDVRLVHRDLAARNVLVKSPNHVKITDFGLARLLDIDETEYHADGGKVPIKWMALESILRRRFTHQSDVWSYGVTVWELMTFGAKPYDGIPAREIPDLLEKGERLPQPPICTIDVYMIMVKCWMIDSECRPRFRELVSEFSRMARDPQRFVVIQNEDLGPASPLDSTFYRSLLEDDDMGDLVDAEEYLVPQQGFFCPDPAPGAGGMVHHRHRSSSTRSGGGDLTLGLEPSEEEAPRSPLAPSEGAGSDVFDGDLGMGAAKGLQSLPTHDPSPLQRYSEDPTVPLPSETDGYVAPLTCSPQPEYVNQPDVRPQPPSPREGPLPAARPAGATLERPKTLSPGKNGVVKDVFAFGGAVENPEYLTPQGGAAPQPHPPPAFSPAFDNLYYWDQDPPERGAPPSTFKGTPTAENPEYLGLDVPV

| Compound | IC50 [1] [µM] | IC50 [2] [µM] | IC50 [3] [µM] | IC50 [4] [µM] | IC50 [5] [µM] |
| --- | --- | --- | --- | --- | --- |
| Nc1nc(-c2cccc(NC(=O)c3c(F)cccc3F)c2)c(-c2ccnc(Nc3ccc4c(c3)NC(=O)CO4)n2)s1 [Example 20, N-[3-(2-Amino-5-{2-[(3-oxo-3,4-dihydro-2H-1,4-benzoxaziN-6-yl)amino]-4-pyrimidinyl}-1,3-thiazol-4-yl)phenyl]-2,6-difluorobenzamide] | < 0.1 | < 0.1 | > 1 | < 0.1 | < 0.1 |
| O=C(Nc1cccc(-c2ncsc2-c2ccnc(Nc3ccc4c(c3)CNCC4)n2)c1)c1c(F)cccc1F [Example 91, 2,6-Difluoro-N-(3-{5-[2-(1,2,3,4-tetrahydro-7-isoquinolinylamino)-4-pyrimidinyl]-1,3-thiazol-4-yl}phenyl)benzamide] | < 0.1 | < 0.1 | 0.1 to 1 | < 0.1 | < 0.1 |
| Nc1nc(-c2cccc(NC(=O)c3c(F)cccc3F)c2)c(-c2ccnc(Nc3cccc(F)c3)n2)s1 [Example 7] | < 0.1 | < 0.1 | > 1 | < 0.1 | < 0.1 |
| Nc1nc(-c2cccc(NC(=O)c3c(F)cccc3F)c2)c(-c2ccnc(Nc3ccc4c(c3)OCC(=O)N4)n2)s1 [Example 9, hydrochloride] | < 0.1 | < 0.1 | > 1 | < 0.1 | < 0.1 |
| COc1ccc(Nc2nccc(-c3scnc3-c3cccc(NC(=O)Cc4cccs4)c3)n2)cc1OCCN(C)C [Example 78, N-{3-[5-(2-{[3-{[2-(Dimethylamino)ethyl]oxy}-4-(methyloxy)phenyl]amino}-4-pyrimidinyl)-1,3-thiazol-4-yl]phenyl}-2-(2-thienyl)acetamide] | < 0.1 | 0.1 to 1 | 0.1 to 1 | < 0.1 | 0.1 to 1 |
| COc1ccc(Nc2nccc(-c3sc(N)nc3-c3cccc(NC(=O)c4c(F)cccc4F)c3)n2)cc1N(C)C [Example 19, N-{3-[2-Amino-5-(2-{[3-(dimethylamino)-4-(methyloxy)phenyl]amino}-4-pyrimidinyl)-1,3-thiazol-4-yl]phenyl}-2,6-difluorobenzamide] | < 0.1 | < 0.1 | 0.1 to 1 | < 0.1 | < 0.1 |
| Nc1nc(-c2cccc(NC(=O)c3c(F)cccc3F)c2)c(-c2ccnc(Nc3cccc(CCS(N)(=O)=O)c3)n2)s1 [Example 8] | < 0.1 | < 0.1 | 0.1 to 1 | < 0.1 | < 0.1 |
| O=C1COc2cc(Nc3nccc(-c4scnc4-c4cccc(NC(=O)c5cc(F)ccc5F)c4)n3)ccc2N1 [Example 98, 2,5-Difluoro-N-[3-(5-{2-[(3-oxo-3,4-dihydro-2H-1,4-benzoxaziN-7-yl)amino]-4-pyrimidinyl}-1,3-thiazol-4-yl)phenyl]benzamide hydrochloride] | < 0.1 | < 0.1 | > 1 | < 0.1 | < 0.1 |
| CCN(CC)CCOc1cccc(Nc2nccc(-c3scnc3-c3cccc(NC(=O)Cc4cccs4)c3)n2)c1 [Example 82, N-[3-(5-{2-[(3-{[2-(Diethylamino)ethyl]oxy}phenyl)amino]-4-pyrimidinyl}-1,3-thiazol-4-yl)phenyl]-2-(2-thienyl)acetamide] | < 0.1 | 0.1 to 1 | 0.1 to 1 | < 0.1 | 0.1 to 1 |
| Nc1nc(-c2cccc(NC(=O)Cc3cccs3)c2)c(-c2ccnc(Nc3cccc(F)c3)n2)s1 [Example 64, N-[3-(2-Amino-5-{2-[(3-fluorophenyl)amino]-4-pyrimidinyl}-1,3-thiazol-4-yl)phenyl]-2-(2-thienyl)acetamide] | 0.1 to 1 | 0.1 to 1 | > 1 | < 0.1 | 0.1 to 1 |
